US20260306641A1, “HELICASE DEGRADERS” (priority 2023, published 2026)

How the values were obtained:
[1] = system: Cdk1 and Cdk2 targets (Rb, Cdc6, PP1a); assay: Immunoblot of Cdk1/Cdk2-dependent targets, HaCaT cells; type: cell-based, human; details: extended exposure (18 hrs)
Procedure: (§1) Immunoblots of total proteins from synchronized HaCaT cells treated with compounds at time of release (0 hr; beginning of G1 phase) and collected after 18 hrs of exposure. (FIG. 5A) DDK-dependent phosphorylation sites on Mcm2 were analyzed with phospho-specific antibodies. (FIG. 5B) Cdk1- and Cdk2-dependent targets (Rb, Cdc6, and PP1α) were analyzed with phospho-specific antibodies.

[2] = system: Flag-Mcm2 hCMG and replisome complexes from HEK-293T cells; assay: Co-immunoprecipitation, HEK-293T cells expressing Flag-Mcm2; type: biochemical, human; details: 15 μM, 30 min; Flag IP
Procedure: Nuclear extracts were prepared from synchronized HaCaT cells after releasing into S-phase (at 20 hrs post release) or HEK-293T cells expressing stable Flag-Mcm2 protein (human). Cells from one 10 cm dish were resuspended in […] of Buffer A (10 mM Hepes-KOH pH 7.5, 10 mM KCl, 1.5 mM MgCl2, 0.34 M sucrose, 10% glycerol, protease inhibitors, and 0.1% Triton-X-100) and incubated on ice for 5 min. The nuclear pellet was obtained by centrifugation at 4,000 rpm at 4° C. for 5 min and washed with the Buffer A without Triton X-100. The nuclear extract was obtained by resuspending the nuclear pellet in […] of Buffer A containing 420 mM potassium acetate and 0.01% Triton X-100, and incubating at 4° C. for 1 hr. The final concentration of potassium acetate in nuclear extracts was adjusted to 200 mM for the co-immunoprecipitation assays. For the co-immunoprecipitation assays, […] of indicated antibody [anti-Mcm2, anti-Psf1, or rabbit IgG (Sigma)], or 30 mL of mouse IgG or anti-Flag agarose beads (Sigma), was incubated with […] of nuclear extract at 4° C. for 4 hrs. Protein A/G agarose beads (30 mL, Santa Cruz, sc-2003) were added and incubated for 1 hr with antibodies. […] Beads were washed in the same buffer and analyzed by immunoblotting with indicated antibodies.

[3] = system: Dbf4-Cdc7 (DDK); Mcm2 S53 and S139; assay: Immunoblot of DDK-dependent Mcm2 phosphorylation, HaCaT cells; type: cell-based, human; details: extended exposure (18 hrs)
Procedure: as §1

[4] = system: T1, human CMG helicase (hCMG); assay: hCMG ATPase activity, FP ADP^2 Transcreener assay; type: biochemical; details: primary FP ATPase assay
T1 construct: made in house; host or cells: High Five insect cells, baculovirus (11 viruses co-infected)
Procedure: The fluorescent-polarization (FP) ADP-sensing assays were performed using the Transcreener® ADP^2 FP assay kit (cat #3010-1K, Bellbrook Labs). For hCMG inhibitor screening, assays were performed at 37° C. for 1 hr in 10 μl reactions in a 384-well plate (cat. #4514, Corning) using 2 μL of hCMG (~15 fmol), 25 mM Hepes-NaOH (pH 7.5), 10 mM NaCl, 0.5 mM ATP, 10 mM magnesium acetate, 1 mM DTT, 0.1 mg/ml BSA, and DNA fork substrates. […] Selected inhibitors or samples from a chemical library were added into the reactions when conducting the screening or testing inhibitor effectiveness. The NCI Diversity Set VI chemical library was obtained from the National Cancer Institute (Bethesda, MD).
The window of sensitivity for the ADP-sensing assays is determined by setting up two 10 μL control samples without any added hCMG helicase: a Low-FP mixture (4 nM ADP Alexa Fluor-633 Tracer alone) and a High-FP mixture (4 nM ADP Alexa Fluor-633 Tracer plus patented anti-ADP^2 Antibody). The amount of ADP^2 Antibody used had to be adjusted to account for the use of 500 μM ATP in our hCMG assays, versus 10 μM ATP in enzyme reactions typically assessed with standard kits prepared by BellBrook Labs. […] This was done according to the manufacturer by performing a titration with increasing ADP^2 Antibody, fixed 4 nM ADP Alexa Fluor-633 Tracer, and 500 μM ATP to determine the ~EC80-85 for millipol (mP) changes, which determined the optimal ADP^2 Antibody concentration to use as 0.64 mg/ml (FIG. 9A). Samples are read with a Perkin Elmer Envision II plate reader with optimized Cy5 (far-red) FP-compatible mirror and cubes (cat #2100-8390, Perkin Elmer). The Low-FP sample is the least polarized and gives a low mP reading, while the High-FP sample is the most polarized and gives the highest mP reading. The difference between the Low-FP and High-FP values defines the FP assay window, which is normally in a range of 150-200 mP under ideal conditions for screening purposes. The hCMG helicase hydrolyzes ATP to ADP and decreases the mP reading within this window, with an ideal change (ΔmP) in the FP window of at least 50% to be in a readable range for inhibitor screening (as per manufacturer). Potential hCMG chemical inhibitors reverse this effect and cause the mP readings to increase.
We performed a titration with increasing and decreasing concentrations of ADP and ATP, respectively, to assess the sensitivity of the FP assay in detecting ADP production (FIG. 9B). Consistent with the stated manufacturer predictions, the assay can reliably detect 1-3% changes in ADP production (i.e., 5-15 μM ADP production) in starting concentrations of ATP of 500 μM, with a Z′ efficiency between 0.6-0.8 (determined following manufacturer protocols).
Once the hCMG enzyme reactions are complete, 10 μL of 1× Stop Solution and Detection Buffer (buffer from BellBrook Labs; containing 4 nM ADP Alexa Fluor-633 Tracer plus ADP^2 Antibody) are added to each reaction, and to the High-FP control. The Low-FP control receives 10 μL of 1× Stop Solution and Detection Buffer containing only 4 nM ADP Alexa Fluor-633 Tracer (no Antibody). Samples are incubated at 25° C. for 1 hr, then read in the plate reader. […] Plate readings from these tests of potential positive hits should be similar to that seen with the Low-FP control, or such hits may instead be false-positives.

DNA Polymerase-theta = details: higher doses; cited from earlier work

T1 sequence (P49736 whole entry): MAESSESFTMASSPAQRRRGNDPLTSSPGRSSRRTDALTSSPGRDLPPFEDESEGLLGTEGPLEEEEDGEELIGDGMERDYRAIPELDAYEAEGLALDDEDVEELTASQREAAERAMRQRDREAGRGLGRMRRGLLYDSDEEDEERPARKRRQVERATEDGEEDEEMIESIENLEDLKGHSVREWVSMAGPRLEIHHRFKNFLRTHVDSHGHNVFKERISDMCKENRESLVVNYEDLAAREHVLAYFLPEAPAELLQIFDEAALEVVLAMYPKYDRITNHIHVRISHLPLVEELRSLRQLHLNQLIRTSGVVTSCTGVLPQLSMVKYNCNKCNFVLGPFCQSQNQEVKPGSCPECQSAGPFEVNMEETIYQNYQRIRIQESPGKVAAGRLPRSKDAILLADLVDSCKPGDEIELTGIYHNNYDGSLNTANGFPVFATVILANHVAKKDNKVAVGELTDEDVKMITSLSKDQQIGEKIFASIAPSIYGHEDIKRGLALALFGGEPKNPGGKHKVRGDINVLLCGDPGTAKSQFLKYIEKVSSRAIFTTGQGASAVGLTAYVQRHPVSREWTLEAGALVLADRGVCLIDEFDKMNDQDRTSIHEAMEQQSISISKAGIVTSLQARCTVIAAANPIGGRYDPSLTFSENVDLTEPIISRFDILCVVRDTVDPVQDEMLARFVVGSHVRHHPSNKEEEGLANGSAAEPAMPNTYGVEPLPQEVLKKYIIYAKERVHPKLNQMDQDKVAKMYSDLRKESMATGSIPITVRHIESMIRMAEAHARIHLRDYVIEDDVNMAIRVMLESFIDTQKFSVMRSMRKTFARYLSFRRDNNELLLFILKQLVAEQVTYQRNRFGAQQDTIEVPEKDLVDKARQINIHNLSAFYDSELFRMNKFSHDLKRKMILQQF
T1 sequence (P25205 whole entry, further chain): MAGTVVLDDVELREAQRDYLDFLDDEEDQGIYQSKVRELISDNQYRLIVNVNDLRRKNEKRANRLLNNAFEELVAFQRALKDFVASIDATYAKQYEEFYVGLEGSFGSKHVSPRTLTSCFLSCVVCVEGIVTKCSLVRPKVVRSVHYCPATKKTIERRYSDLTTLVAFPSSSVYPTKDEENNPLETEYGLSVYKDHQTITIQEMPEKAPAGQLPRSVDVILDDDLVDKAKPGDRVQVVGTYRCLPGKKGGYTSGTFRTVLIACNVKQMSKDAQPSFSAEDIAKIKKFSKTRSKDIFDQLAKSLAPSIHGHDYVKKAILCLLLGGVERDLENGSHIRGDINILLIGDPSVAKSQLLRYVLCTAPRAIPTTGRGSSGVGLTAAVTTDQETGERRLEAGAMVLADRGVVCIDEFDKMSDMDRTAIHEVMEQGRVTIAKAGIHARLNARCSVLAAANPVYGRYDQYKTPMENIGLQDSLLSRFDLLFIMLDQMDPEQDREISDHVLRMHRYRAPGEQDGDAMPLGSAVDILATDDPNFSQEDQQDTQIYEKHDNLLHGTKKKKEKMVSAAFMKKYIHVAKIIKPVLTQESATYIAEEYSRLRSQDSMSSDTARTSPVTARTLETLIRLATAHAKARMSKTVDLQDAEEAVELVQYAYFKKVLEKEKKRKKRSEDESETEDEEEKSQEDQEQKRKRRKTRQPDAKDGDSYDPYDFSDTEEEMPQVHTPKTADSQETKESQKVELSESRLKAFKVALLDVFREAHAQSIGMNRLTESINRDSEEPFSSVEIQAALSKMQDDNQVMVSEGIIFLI
T1 sequence (P33991 whole entry, further chain): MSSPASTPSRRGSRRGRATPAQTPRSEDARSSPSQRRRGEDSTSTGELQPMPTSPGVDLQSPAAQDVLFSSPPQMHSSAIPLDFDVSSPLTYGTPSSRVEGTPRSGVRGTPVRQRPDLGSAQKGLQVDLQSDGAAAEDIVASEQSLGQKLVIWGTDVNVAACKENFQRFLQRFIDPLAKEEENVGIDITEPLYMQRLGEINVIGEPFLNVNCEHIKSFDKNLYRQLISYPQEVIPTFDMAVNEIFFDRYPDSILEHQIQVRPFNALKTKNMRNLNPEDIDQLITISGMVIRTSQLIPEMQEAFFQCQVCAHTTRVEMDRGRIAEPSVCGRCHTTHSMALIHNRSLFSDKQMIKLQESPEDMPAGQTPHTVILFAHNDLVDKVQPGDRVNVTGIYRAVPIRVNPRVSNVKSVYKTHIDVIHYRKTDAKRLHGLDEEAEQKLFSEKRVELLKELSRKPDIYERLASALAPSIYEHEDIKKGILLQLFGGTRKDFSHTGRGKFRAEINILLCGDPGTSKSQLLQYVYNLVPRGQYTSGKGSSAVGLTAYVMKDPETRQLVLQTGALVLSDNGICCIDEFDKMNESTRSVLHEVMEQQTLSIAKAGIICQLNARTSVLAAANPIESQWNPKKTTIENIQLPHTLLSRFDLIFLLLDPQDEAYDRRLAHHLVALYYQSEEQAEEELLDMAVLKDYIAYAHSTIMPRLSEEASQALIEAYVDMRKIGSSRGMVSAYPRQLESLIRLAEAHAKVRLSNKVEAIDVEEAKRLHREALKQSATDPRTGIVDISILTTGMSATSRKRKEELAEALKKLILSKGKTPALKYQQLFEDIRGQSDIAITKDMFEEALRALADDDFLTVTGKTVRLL
T1 sequence (P33992 whole entry, further chain): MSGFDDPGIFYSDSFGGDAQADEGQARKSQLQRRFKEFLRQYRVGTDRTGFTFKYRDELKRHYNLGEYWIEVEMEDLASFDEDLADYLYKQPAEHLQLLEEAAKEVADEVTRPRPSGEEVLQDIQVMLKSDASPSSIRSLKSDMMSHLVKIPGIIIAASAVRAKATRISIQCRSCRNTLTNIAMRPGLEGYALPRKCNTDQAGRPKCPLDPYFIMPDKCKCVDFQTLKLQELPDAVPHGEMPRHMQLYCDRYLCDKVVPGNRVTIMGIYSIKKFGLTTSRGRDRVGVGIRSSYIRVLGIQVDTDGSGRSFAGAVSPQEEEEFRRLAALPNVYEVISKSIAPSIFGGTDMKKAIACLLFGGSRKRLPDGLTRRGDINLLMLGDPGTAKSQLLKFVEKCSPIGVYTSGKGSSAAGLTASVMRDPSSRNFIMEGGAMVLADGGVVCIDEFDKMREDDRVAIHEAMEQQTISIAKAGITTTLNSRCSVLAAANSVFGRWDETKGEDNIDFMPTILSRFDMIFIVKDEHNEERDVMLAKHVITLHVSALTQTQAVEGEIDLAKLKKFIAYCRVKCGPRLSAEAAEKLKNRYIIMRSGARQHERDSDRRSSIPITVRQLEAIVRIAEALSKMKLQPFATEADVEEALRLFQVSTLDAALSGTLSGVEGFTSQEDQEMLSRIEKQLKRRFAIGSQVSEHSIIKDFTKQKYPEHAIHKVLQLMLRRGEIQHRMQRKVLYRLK
T1 sequence (Q14566 whole entry, further chain): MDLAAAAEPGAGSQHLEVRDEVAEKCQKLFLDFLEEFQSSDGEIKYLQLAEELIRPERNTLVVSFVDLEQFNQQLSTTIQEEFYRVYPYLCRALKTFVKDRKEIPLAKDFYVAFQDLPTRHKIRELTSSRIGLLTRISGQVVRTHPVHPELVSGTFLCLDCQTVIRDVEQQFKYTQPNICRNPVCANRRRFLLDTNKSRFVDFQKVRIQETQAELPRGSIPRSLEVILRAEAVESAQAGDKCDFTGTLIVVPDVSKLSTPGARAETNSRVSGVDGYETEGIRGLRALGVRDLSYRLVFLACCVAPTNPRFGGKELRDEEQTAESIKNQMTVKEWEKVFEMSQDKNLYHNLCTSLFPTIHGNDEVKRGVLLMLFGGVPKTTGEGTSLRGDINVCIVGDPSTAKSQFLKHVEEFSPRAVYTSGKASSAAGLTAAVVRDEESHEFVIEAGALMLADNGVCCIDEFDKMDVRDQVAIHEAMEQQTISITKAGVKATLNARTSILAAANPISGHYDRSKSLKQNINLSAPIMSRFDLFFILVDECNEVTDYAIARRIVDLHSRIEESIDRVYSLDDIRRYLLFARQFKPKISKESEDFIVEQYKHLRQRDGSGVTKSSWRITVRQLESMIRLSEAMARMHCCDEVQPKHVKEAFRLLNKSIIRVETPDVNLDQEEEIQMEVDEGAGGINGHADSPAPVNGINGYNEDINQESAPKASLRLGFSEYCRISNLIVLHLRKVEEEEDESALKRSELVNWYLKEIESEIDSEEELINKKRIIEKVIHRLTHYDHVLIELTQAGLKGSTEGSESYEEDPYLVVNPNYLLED
T1 sequence (P33993 whole entry, further chain): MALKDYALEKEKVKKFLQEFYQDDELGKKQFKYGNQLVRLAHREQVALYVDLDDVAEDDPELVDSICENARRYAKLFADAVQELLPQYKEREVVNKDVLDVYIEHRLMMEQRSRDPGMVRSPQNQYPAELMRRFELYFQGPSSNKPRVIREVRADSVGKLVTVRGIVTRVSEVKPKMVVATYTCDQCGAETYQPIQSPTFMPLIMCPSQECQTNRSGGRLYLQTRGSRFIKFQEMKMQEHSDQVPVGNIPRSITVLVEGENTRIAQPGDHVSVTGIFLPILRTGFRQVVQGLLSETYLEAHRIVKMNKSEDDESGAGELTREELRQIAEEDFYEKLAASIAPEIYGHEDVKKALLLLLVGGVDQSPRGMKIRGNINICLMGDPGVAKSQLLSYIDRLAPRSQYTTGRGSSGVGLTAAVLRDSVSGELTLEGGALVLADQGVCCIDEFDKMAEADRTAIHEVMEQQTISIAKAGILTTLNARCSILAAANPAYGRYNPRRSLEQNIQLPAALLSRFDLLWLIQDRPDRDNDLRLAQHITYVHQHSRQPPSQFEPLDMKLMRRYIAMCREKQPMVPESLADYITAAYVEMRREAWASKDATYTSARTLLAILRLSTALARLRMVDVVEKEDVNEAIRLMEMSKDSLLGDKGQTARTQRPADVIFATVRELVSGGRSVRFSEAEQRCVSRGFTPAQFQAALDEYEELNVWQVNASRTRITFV

Row | Structure (SMILES) | phosphorylation of Cdk2 targets Rb, Cdc6 (S54P) and Cdk1 target PP1a [1] | MCM interactions [2] | Psf1, Cdc45 and Ctf4 association with Flag-Mcm2 [2] | Mcm2 S53 and S139 phosphorylation [3] | inhibition of hCMG ATP hydrolysis [4] | DNA Polymerase-theta inhibition (DNA Polymerase-theta)
1 | CO[C@@H]1[C@@H](OC(=O)c2ccc(C)[nH]2)[C@@H](O)[C@H](Oc2ccc3c(O)c(NC(=O)c4c[nH]c(C(=O)Nc5c(O)c6ccc(O[C@@H]7OC(C)(C)[C@H](OC)[C@@H](OC(=O)c8ccc(C)[nH]8)[C@H]7O)c(C)c6oc5=O)c4C)c(=O)oc3c2C)OC1(C)C [CA1] | no effect on these substrates | does not disrupt MCM interactions | displaces Psf1, Cdc45, and Ctf4 from Flag-Mcm2 | no phosphorylation changes | potent inhibitor of ATP hydrolysis by the hCMG | 
2 | CO[C@@H]1[C@@H](OC(N)=O)[C@@H](O)[C@H](Oc2ccc3c(O)c(NC(=O)c4ccc(O)c(CC=C(C)C)c4)c(=O)oc3c2C)OC1(C)C [novobiocin] |  |  |  |  | very little inhibitory effect on the hCMG | can inhibit a different anti-cancer target, DNA Polymerase-theta
